Laboratory results reported in patent publication US20260209777A1, “TARGETING GLYCOSYLPHOSPHATIDYLINOSITOL (GPI) PATHWAY PROTEINS TO TREAT OVARIAN CANCER” (UNIVERSITY OF MASSACHUSETTS, priority 2023, published 2026).

How the values were obtained:
OVCAR8 cells = assay: Cell viability assay (PrestoBlue) in OVCAR8 cells; type: cell-based, human; settings: OVCAR8, 5, 10 or 20 μM bestatin vs DMSO (FIG. 6F)
Description: Cell Viability Assay: OVCAR8 cells were transduced with a lentivirus expressing non-silencing (NS) or CD24 shRNA (Table 1) and analyzed for cell viability using PrestoBlue Cell Viability Reagent (Invitrogen™, Cat #A13261) as per the manufacturer's instructions, and relative cell growth was determined. […]

OVCAR8-GFP-Luc cells = assay: Intraperitoneal OVCAR8 xenograft in NSG mice (bioluminescence imaging, ascites, in vivo phagocytosis)
Description: Animal Experiments: All mouse studies were performed in accordance with the Guide for the Care and Use of Laboratory Animals from NIH, and a protocol (202000157) approved by the UMass Chan Medical School Institutional Animal Care and Use Committee (IACUC). Female NSG mice (n=3 per group), 6-7 weeks of age, were injected intraperitoneally with 4×10^6 OVCAR8/EmGFP-luc cells or OVCAR8-ΔGPAA1/EmGFP-luc cells. Tumors were analyzed using bioluminescence imaging beginning 7 days post-engraftment and continuing every 7 days until day 28. Mice were injected intraperitoneally with firefly D-luciferin at 140 mg/kg in PBS and images were acquired 10 min after luciferin injection using an IVIS Spectrum (Perkin Elmer). Total flux was quantified using Living Image 4.0 software (IVIS Imaging Systems).
For macrophage depletion experiments, 200 μl of clodronate liposomes (Liposoma) was administered intraperitoneally every 4 days for 16 days before tumor implantation, followed by injection of 100 μl of clodronate liposomes every 4 days. Depletion of […] was verified by flow cytometry analysis peritoneal lavage using an APC anti-mouse F4/80 antibody (BioLegend, Cat #123116, clone BM8, 1:50 dilution).
[…] Tumors were analyzed by in vivo bioluminescence imaging as described above.
In vivo Phagocytosis Assay: An in vivo phagocytosis assay was performed as described previously (Barkal et al., Nature 2019, 572(7769):392-396). Mice were implanted with 4×10^6 OVCAR8/EmGFP-luc cells as described above and 7 days later bestatin (100 mg/kg) was administered daily by intraperitoneal injection. After 10 days of bestatin treatment, peritoneal ascites was harvested. Single-cell suspensions of ascitic cells were blocked using TruStain FcX (anti-mouse CD16/32 antibody (BioLegend, Cat #101320) for 10 min at room temperature and then stained with an APC anti-mouse F4/80 antibody (BioLegend, Cat #123116, clone BM8, 1:50 dilution) for 30 min on ice in the dark. The percentage of cells undergoing phagocytosis was calculated as the percentage of F4/80+ EmGFP+ double-positive cells in the population.

GPAA1 = biological target: T1, GPAA1 (Homo sapiens, UniProt O43292); assay: Cellular thermal stability shift assay (CETSA); type: binding; settings: OVCAR8 cells, bestatin 100 μM for 2 hours, relative to DMSO (FIG. 6B)
T1 construct: endogenous in cells; host or cells: OVCAR8 human ovarian cancer cells (Creative Biolabs, Cat #IOC-ZP305)
T1 sequence (O43292 1-621): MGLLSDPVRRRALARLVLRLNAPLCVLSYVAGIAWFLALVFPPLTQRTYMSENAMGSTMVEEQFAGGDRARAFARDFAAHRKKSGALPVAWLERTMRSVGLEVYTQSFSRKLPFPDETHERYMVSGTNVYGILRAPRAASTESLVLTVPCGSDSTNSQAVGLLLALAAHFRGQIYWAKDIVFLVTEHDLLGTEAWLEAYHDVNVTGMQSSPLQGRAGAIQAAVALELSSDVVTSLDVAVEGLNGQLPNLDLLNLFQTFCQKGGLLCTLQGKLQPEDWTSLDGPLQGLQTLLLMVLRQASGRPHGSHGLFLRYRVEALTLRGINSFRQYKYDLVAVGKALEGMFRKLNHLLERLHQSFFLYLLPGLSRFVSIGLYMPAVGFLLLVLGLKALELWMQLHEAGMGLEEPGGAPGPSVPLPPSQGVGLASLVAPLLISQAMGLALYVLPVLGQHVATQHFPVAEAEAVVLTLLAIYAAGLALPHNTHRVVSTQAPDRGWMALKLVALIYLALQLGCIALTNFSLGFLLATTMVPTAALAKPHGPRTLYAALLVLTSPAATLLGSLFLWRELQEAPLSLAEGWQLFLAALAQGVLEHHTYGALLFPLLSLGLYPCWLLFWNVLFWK
Description: CETSA: CETSA assays were performed as described previously (Jafari et al., Nat Protoc 2014, 9(9):2100-22). In brief, […] OVCAR8 cells were treated with DMSO or 100 μM bestatin for 2 hours. Cells (50 μl) were aliquoted in PCR tubes and incubated at room temperature (25° C.) or at a range of temperatures (37° C. to 65.2° C.) in a thermal cycler for 3 min and cooled to 4° C. Cells were lysed using Alpha SureFire Ultra Lysis Buffer (PerkinElmer, Cat #ASLU-LB) supplemented with Halt Protease Inhibitor Cocktail (ThermoFisher Scientific, Cat #78430). Insoluble proteins were separated by centrifugation at 15000×g for 30 mins at 4° C. Equal volumes of each sample were separated by SDS-PAGE and detected by immunoblotting blotting using an anti-GPAA1 polyclonal antibody (Invitrogen, Cat #PA5-100548). Three independent experiments were performed. Densitometry of the blots was performed using ImageJ software and the graph was plotted using GraphPad Prism 9.0.
Due to the predicted structural similarity between GPAA1 and M28-type metallopeptidases, we hypothesized that GPAA1 may be inhibited by bestatin and carried out a series of experiments to test this possibility. […] The ligand-bound proteins in the soluble fraction are analyzed by immunoblotting to quantify the changes in thermal stability.

SKOV3 cells = assay: Cell viability assay (PrestoBlue) in SKOV3 cells; type: cell-based, human; settings: SKOV3, 5, 10 or 20 μM bestatin vs DMSO (FIG. 6F)

thermal stability of GPAA1 (GPAA1): increased
SMILES: CC(C)C[C@H](NC(=O)[C@@H](O)[C@H](N)Cc1ccccc1)C(=O)O [bestatin]
cell viability (OVCAR8 cells): no effect | tumor growth (total flux, in vivo bioluminescence imaging) (OVCAR8-GFP-Luc cells; NSG mice, IP OVCAR8-GFP-Luc, bestatin 100 mg/kg/d IP vs vehicle (FIG. 10C)): significantly reduced | GFP+F4/80+ double-positive cells in ascites (in vivo phagocytosis) (OVCAR8-GFP-Luc cells; bestatin 100 mg/kg daily IP, 10 days, vs vehicle (FIG. 10E)): increase | ascites volume (OVCAR8-GFP-Luc cells; bestatin 100 mg/kg/d IP, 10 days of treatment, vs vehicle (FIG. 10D)): significantly reduced | cell viability (SKOV3 cells): no effect
